Test results reported in patent US20170296457A1, “PRODUCTS AND METHODS FOR TREATING PERIORBITAL DYSCHROMIA” (The Procter & Gamble Company, priority 2016, published 2017).

Test system: B16-F1 mouse melanoma cell line
Assay: B16 melanin synthesis inhibition assay
Format: cell-based
Settings: B16-F1 cells, OD at 410 nm
Experimental: In this example, a commercially available B16-F1 mouse melanoma cell line from American Tissue Culture Collection, Virginia, USA was employed in a conventional melanin synthesis inhibition assay. The cell culture medium used in the assay is 500 mL of Dulbecco's Modified Eagle's Medium (DMEM), 50 mL Fetal Bovine Serum (FBS), and 5 mL of penicillin-streptomycin liquid. B16-F1 cells that are cultured in this medium and grown to greater than 90% confluency will synthesize melanin. While not intending to be bound by any theory, it is hypothesized that the melanin synthesis is stimulated by the culture medium and/or stress induced by growth to a high confluency. […] Equipment used in the assay include a CO2 incubator, such as a Forma Series Model 3110 by Therma Scientific, Massachusetts, USA; a hemocytometer, such as a Bright Line model by Hauser Scientific, Pennsylvania, USA; and a UV-Visible Spectrum Plate Reader, such as a SpectraMax250 from Molecular Devices, California, USA. […] Day 3: The cells from the T-150 flask are trypsinized, and the concentration of cells is determined using the hemacytometer. […] Read the 96 well plate using the UV-Vis Plate Reader at 410 nm to optically measure the amount of melanin produced between wells that are treated with the pumpkin seed extract and control wells that are not. […] The concentration of test agent needed to provide the IC 50 is recorded.

Concentration Needed for IC 50 (v/v): 0.008 v/v
Compound: Oc1ccc(OC2CCCCO2)cc1 (stereo not shown) [Deoxyarbutin]
